Data taken from patent US9447132B2 (priority 2013, dated 2016).
pEC50: −log10 of the molar value. Marks after values point to notes of the source that are not given here.

Legend:
[1] = system: HCV genotype 1; conditions: cited from earlier work
[2] = Buffer stability (stability of the compounds in the absence of cells); assay type: physicochemical; conditions: 24 hr
[3] = system: HCV replicon; experiment: Predicted EC50 against HCV replicon in primary human hepatocytes; assay type: cell-based; conditions: Hepatitis C virus, Hepatocyte
[4] = system: human liver hepatocytes; experiment: Triphosphate levels (Formula IV, GS-7977-TP) in human hepatocytes; assay type: in vitro ADME; conditions: for time at which peak levels were obtained: 5 μM parent, 48 hours of incubation
Procedure: […] Cells were washed twice with cold PBS.
Supernatants were removed and analyzed by LC-MS/MS. […] Samples were centrifuged at 3000 rpm for 15 minutes. Supernatants were removed and analyzed by LC-MS/MS.

[5] = system: human liver hepatocyte; experiment: Half-life of active triphosphate in human hepatocytes; assay type: in vitro ADME; conditions: for t1/2 (hr): Human hepatocytes, parenthesis = 95% confidence interval
Procedure: (§1) Human hepatocyte cells used for half-life determinations were human liver hepatocyte 12-well format cells and were seeded at 0.67 million cells per well. Canine hepatocyte cells used for half-life determinations were beagle dog liver hepatocyte 12-well format cells and were seeded at 0.67 million cells per well. Monkey hepatocyte cells used for half-life determinations were Cynomolgus monkey liver hepatocyte 12-well format cells, and were seeded at 0.9 million cells per well. Rat hepatocyte cells for half-life determinations were Sprague-Dawley (SD) rat liver hepatocyte 12-well format cells, and were seeded at 0.67 million cells per well. All cells were obtained from Life Technologies.

[6] = system: beagle dog liver hepatocyte; experiment: Half-life of active triphosphate in dog hepatocytes; assay type: in vitro ADME; conditions: parenthesis = 95% confidence interval
Procedure: as §1

[7] = system: Cynomolgus monkey liver hepatocyte; experiment: Half-life of active triphosphate in monkey hepatocytes; assay type: in vitro ADME; conditions: parenthesis = 95% confidence interval
Procedure: as §1

[8] = system: Sprague-Dawley (SD) rat liver hepatocyte; experiment: Half-life of active triphosphate in rat hepatocytes; assay type: in vitro ADME; conditions: parenthesis = 95% confidence interval
Procedure: as §1

[9] = system: hepatocytes (human, dog, monkey and rat); experiment: Half-lives of active triphosphate in hepatocytes from four species; assay type: in vitro ADME; conditions: across hepatocytes from four species (human, dog, monkey, rat)
Procedure: as §1

[10] = system: HCV genotype 1, 2 or 3; conditions: once-daily 300 mg for seven days, treatment naïve patients; cited from earlier work
[11] = system: primary hepatocytes; experiment: Formula IV concentration from Formula II dosing in primary hepatocytes; assay type: in vitro ADME, human
From the text: The general methods of Example 13 were used to determine compound concentrations.

[12] = system: HCV; conditions: several large clinical trials; cited from earlier work
[13] = 2 hr incubation with 5 μM Formula II
[14] = 4 hr incubation with 5 μM Formula II
[15] = 8 hr incubation with 5 μM Formula II
[16] = 25 hr incubation with 5 μM Formula II
[17] = 48 hr incubation with 5 μM Formula II

## CC(C)OC(=O)[C@H](C)NP(=S)(OC[C@H]1O[C@@H](n2ccc(=O)[nH]c2=O)[C@](C)(O)[C@@H]1O)Oc1ccccc1 (stereo partly drawn) [VX-135]
[1]; eleven patients who completed 12 weeks of treatment, with daclatasvir
  completion of treatment rate (SVR4): 91%
[1]; intent-to-treat, treatment-naïve genotype 1, 200 mg VX-135 in combination with daclatasvir
  sustained viral response rate four weeks after completion of treatment (SVR4): 83%

## [2H]c1cn([C@@H]2O[C@H](C([2H])([2H])OP(=O)(N[C@@H](C)C(=O)OC(C)C)Oc3ccccc3)[C@@H](O)[C@@]2(C)O)c(=O)[nH]c1=O (stereo partly drawn) [Formula II]
[2]; Table 1
  Buffer Stability Parent T24 hr 37° C.: 97
[2]; Table 2
  Buffer Stability Parent T24 hr 37° C.: 97
[3]
  pEC50: 8.00 to 8.20

## C[C@@]1(F)[C@H](O)[C@@H](COP(=O)(O)OP(=O)(O)OP(=O)(O)O)O[C@H]1n1ccc(=O)[nH]c1=O [GS-7977-TP, reference compound]
[4]; human hepatocytes
  time at which peak levels were obtained: 24 h
[4]; over a 48 hour period, 5 μM, human hepatocytes
  intracellular conversion to triphosphate, greater than that of Formula IV from Formula II: 2 fold
[5]
  t1/2 (hr): 22.6 (21.5-23.9) hr
[6]
  t1/2 (hr): 17.7 (15.0-21.5) hr
[7]
  t1/2 (hr): 9.3 (7.9-11.4) hr
[8]
  t1/2 (hr): 7.6 (6.4-9.3) hr
[9]
  half-lives range: 8 to 23 h

## CC(C)OC(=O)[C@@H](C)N[P@@](=O)(OC[C@H]1O[C@@H](n2ccc(=O)[nH]c2=O)[C@](C)(Cl)[C@@H]1O)Oc1ccccc1 [IDX21437]
[10]
  mean maximum reduction in viral load: 4.2-4.3 log 10 IU/mL

## C[C@]1(O)C(n2ccc(=O)[nH]c2=O)OC(COP(=O)(O)OP(=O)(O)OP(=O)(O)O)[C@H]1O (stereo partly drawn) [Formula IV]
[4]; human hepatocytes
  time at which peak levels were obtained: > 48 h
[4]; [13]
  Formula IV (pmol/million cells) rep 1: 72.1 pmol/million cells
  Formula IV (pmol/million cells) rep 2: 71.5 pmol/million cells
  Formula IV (pmol/million cells) rep 3: 67.9 pmol/million cells
[4]; [14]
  Formula IV (pmol/million cells) rep 1: 130 pmol/million cells
  Formula IV (pmol/million cells) rep 2: 129 pmol/million cells
  Formula IV (pmol/million cells) rep 3: 129 pmol/million cells
[4]; [15]
  Formula IV (pmol/million cells) rep 1: 218 pmol/million cells
  Formula IV (pmol/million cells) rep 2: 217 pmol/million cells
  Formula IV (pmol/million cells) rep 3: 236 pmol/million cells
[4]; [16]
  Formula IV (pmol/million cells) Mean+StDev: 486 pmol/million cells
  Formula IV (pmol/million cells) rep 1: 506 pmol/million cells
  Formula IV (pmol/million cells) rep 2: 465 pmol/million cells
  Formula IV (pmol/million cells) rep 3: 488 pmol/million cells
[4]; [17]
  Formula IV (pmol/million cells) rep 1: 619 pmol/million cells
  Formula IV (pmol/million cells) rep 2: 581 pmol/million cells
  Formula IV (pmol/million cells) rep 3: 575 pmol/million cells
[11]; 50 nM Formula II, primary hepatocytes vs Huh-luc/neo cells
  Formula IV concentration higher than in Huh-luc/neo cells: 5- to 8 fold
[11]; Formula II at 50 nM, primary hepatocytes, 24 hours
  level of Formula IV: 9.2-16.2 pmol/million cells
[5]
  t1/2 (hr): 27.6 (26.0-29.4)^a hr
[5]; human hepatocytes
  half-life: > 24 h
[6]
  t1/2 (hr): 29.6 (22.0-45.4) hr
[7]
  t1/2 (hr): 14.5 (11.8-18.9) hr
[8]
  t1/2 (hr): 10.2 (8.6-12.5) hr
[9]
  half-lives range: 10 to 30 h

## CC(C)OC(=O)[C@H](C)N[P@](=O)(OC[C@H]1O[C@@H](n2ccc(=O)[nH]c2=O)[C@@](C)(F)C1O)Oc1ccccc1 (stereo partly drawn) [Sovaldi, Sofosbuvir]
[12]
  sustained viral response (SVR) of twelve weeks, trial participants: 50-90%
